Experimental data: ChEMBL document CHEMBL1909046, “DrugMatrix in vitro pharmacology data”

Experiments:
[1] = DRUGMATRIX: Phorbol Ester radioligand binding (ligand: [3H] PDBu); assay type: cell membranes, Mus musculus, ICR, Brain, Membrane; details: Not Active = under 50% inhibition at 10 µM
[2] = DRUGMATRIX: Platelet-Derived Growth Factor (PDGF) radioligand binding (ligand: [125I] PDGF); assay type: cell-based; details: nih3t3; Not Active = under 50% inhibition at 10 µM
[3] = DRUGMATRIX: Imidazoline I2, Central radioligand binding (ligand: [3H] Idazoxan); assay type: cell membranes, Rattus norvegicus, Wistar, Cerebral cortex, Membrane; details: Not Active = under 50% inhibition at 10 µM
[4] = molecular target: T1, Neuropeptide Y receptor type 2 (Homo sapiens, UniProt P49146); assay type: cell membranes, KAN-TS, Membrane; details: kan-ts; further: in other assays of this panel Not Active means under 50% inhibition at 10 µM
T1 sequence (P49146 whole entry): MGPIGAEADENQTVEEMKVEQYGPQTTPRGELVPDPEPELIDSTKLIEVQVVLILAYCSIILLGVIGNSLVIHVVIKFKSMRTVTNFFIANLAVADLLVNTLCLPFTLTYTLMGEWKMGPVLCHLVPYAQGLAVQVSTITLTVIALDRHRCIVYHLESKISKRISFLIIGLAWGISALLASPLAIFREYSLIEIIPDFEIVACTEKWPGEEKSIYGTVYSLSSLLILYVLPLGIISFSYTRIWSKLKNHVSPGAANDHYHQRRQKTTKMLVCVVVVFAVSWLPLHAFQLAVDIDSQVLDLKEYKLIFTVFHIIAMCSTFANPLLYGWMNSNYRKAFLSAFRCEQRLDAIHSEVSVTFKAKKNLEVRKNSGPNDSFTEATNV

[5] = DRUGMATRIX: Calcium Channel Type L, Benzothiazepine radioligand binding (ligand: [3H] Diltiazem); assay type: cell membranes, Rattus norvegicus, Wistar, Brain, Membrane; details: Not Active = under 50% inhibition at 10 µM
[6] = molecular target: Matrix metalloproteinase-9 (Homo sapiens, UniProt P14780); experiment: biochemical; assay type: cell-based;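 further: inhibition of isolated MMP-9 enzyme activity toward a synthetic peptide substrate, from the DrugMatrix protease screening panel; in other assays of this panel Not Active means under 50% inhibition at 10 µM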
Chain of Matrix metalloproteinase-9 (P14780 whole entry): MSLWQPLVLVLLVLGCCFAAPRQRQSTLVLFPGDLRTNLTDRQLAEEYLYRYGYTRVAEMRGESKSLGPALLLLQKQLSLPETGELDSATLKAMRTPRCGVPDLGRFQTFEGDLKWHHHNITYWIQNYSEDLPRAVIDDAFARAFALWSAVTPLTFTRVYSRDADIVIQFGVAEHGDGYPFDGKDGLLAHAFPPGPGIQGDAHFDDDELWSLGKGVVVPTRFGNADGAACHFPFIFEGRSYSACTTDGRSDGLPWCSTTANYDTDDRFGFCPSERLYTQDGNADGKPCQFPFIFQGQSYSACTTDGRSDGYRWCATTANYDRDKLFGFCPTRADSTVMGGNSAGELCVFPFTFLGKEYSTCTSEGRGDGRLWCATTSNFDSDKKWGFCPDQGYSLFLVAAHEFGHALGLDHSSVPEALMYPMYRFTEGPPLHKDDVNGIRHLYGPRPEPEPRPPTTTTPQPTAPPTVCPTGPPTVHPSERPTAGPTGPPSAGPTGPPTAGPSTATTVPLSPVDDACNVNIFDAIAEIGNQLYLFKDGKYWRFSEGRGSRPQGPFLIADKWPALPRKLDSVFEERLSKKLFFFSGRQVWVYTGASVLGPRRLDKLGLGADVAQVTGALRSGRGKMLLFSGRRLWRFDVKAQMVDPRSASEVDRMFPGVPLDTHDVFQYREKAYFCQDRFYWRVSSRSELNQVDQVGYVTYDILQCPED

## CCn1cc(C(=O)O)c(=O)c2cnc(N3CCCC3)nc21 [PIROMIDIC ACID]
[1]
  IC50: Not Active
  Ki: Not Active
[2]
  IC50: Not Active
  Ki: Not Active
[3]
  IC50: Not Active
  Ki: Not Active
[4]
  IC50: Not Active
[5]
  IC50: Not Active
  Ki: Not Active
[6]
  IC50: Not Active

## CC1(C)S[C@@H]2[C@H](NC(=O)[C@H](N)c3ccccc3)C(=O)N2[C@H]1C(=O)O [AMPICILLIN]
[1]
  IC50: Not Active
  Ki: Not Active
[2]
  IC50: Not Active
  Ki: Not Active
[3]
  IC50: Not Active
  Ki: Not Active
[4]
  IC50: Not Active
[5]
  IC50: Not Active
  Ki: Not Active
[6]
  IC50: Not Active

## CCN(CC)CCOCCC1=CCC2CC1C2(C)C (configuration not stated) [MYRTECAINE]
[1]
  IC50: Not Active
  Ki: Not Active
[2]
  IC50: Not Active
  Ki: Not Active
[3]
  IC50: Not Active
  Ki: Not Active
[4]
  IC50: Not Active
[5]
  IC50: Not Active
  Ki: Not Active
[6]
  IC50: Not Active

## COC(=O)Nc1nc2ccc([S+]([O-])c3ccccc3)cc2[nH]1 (configuration not stated) [OXFENDAZOLE]
[1]
  IC50: Not Active
  Ki: Not Active
[2]
  IC50: Not Active
  Ki: Not Active
[3]
  IC50: Not Active
  Ki: Not Active
[4]
  IC50: Not Active
[5]
  IC50: Not Active
  Ki: Not Active
[6]
  IC50: Not Active

## CC(=O)[C@@]1(O)CC[C@H]2[C@@H]3CCC4=CC(=O)CC[C@]4(C)[C@H]3CC[C@@]21C [HYDROXYPROGESTERONE]
[1]
  IC50: Not Active
  Ki: Not Active
[2]
  IC50: Not Active
  Ki: Not Active
[3]
  IC50: Not Active
  Ki: Not Active
[4]
  IC50: Not Active
[5]
  IC50: Not Active
  Ki: Not Active
[6]
  IC50: Not Active

## Oc1c(Cl)cc(Cl)c(Cl)c1Cc1c(O)c(Cl)cc(Cl)c1Cl [HEXACHLOROPHENE]
[1]
  IC50: Not Active
  Ki: Not Active
[2]
  IC50: Not Active
  Ki: Not Active
[3]
  IC50: Not Active
  Ki: Not Active
[4]
  IC50: Not Active
[5]
  IC50: Not Active
  Ki: Not Active
[6]
  IC50: Not Active

## COC1=C(OC)C(=O)C(CCCCCCCCCCO)=C(C)C1=O [IDEBENONE]
[1]
  IC50: Not Active
  Ki: Not Active
[2]
  IC50: Not Active
  Ki: Not Active
[3]
  IC50: Not Active
  Ki: Not Active
[4]
  IC50: Not Active
[5]
  IC50: Not Active
  Ki: Not Active
[6]
  IC50: Not Active

## C[C@]12C=CC(=O)C=C1CC[C@@H]1[C@@H]2[C@@H](O)C[C@@]2(C)[C@H]1CC[C@]2(O)C(=O)CO [PREDNISOLONE]
[1]
  IC50: Not Active
  Ki: Not Active
[2]
  IC50: Not Active
  Ki: Not Active
[3]
  IC50: Not Active
  Ki: Not Active
[4]
  IC50: Not Active
[5]
  IC50: Not Active
  Ki: Not Active
[6]
  IC50: Not Active

## O=C1O[C@H]([C@@H](O)CO)C(O)=C1O [ASCORBIC ACID]
[1]
  IC50: Not Active
  Ki: Not Active
[2]
  IC50: Not Active
  Ki: Not Active
[3]
  IC50: Not Active
  Ki: Not Active
[4]
  IC50: Not Active
[5]
  IC50: Not Active
  Ki: Not Active
[6]
  IC50: Not Active

## COc1ccc(C2C(=O)c3ccccc3C2=O)cc1 [ANISINDIONE]
[1]
  IC50: Not Active
  Ki: Not Active
[2]
  IC50: Not Active
  Ki: Not Active
[3]
  IC50: Not Active
  Ki: Not Active
[4]
  IC50: Not Active
[5]
  IC50: Not Active
  Ki: Not Active
[6]
  IC50: Not Active

## Brc1c(NC2=NCCN2)ccc2nccnc12 [BRIMONIDINE]
[1]
  IC50: Not Active
  Ki: Not Active
[2]
  IC50: Not Active
  Ki: Not Active
[3]; read-out: IC50
  IC50: 0.074 µM
[3]; read-out: Ki
  Ki: 0.049 µM
[4]
  IC50: Not Active
[5]
  IC50: Not Active
  Ki: Not Active
[6]
  IC50: Not Active

## COc1ccc(C(=O)N2CCCC2=O)cc1
[1]
  IC50: Not Active
  Ki: Not Active
[2]
  IC50: Not Active
  Ki: Not Active
[3]
  IC50: Not Active
  Ki: Not Active
[4]
  IC50: Not Active
[5]
  IC50: Not Active
  Ki: Not Active
[6]
  IC50: Not Active

## C[C@@H]1C[C@H]2[C@@H]3CCC4=CC(=O)C=C[C@]4(C)[C@@]3(F)[C@@H](O)C[C@]2(C)[C@@]1(O)C(=O)CO [DEXAMETHASONE]
[1]
  IC50: Not Active
  Ki: Not Active
[2]
  IC50: Not Active
  Ki: Not Active
[3]
  IC50: Not Active
  Ki: Not Active
[4]
  IC50: Not Active
[5]
  IC50: Not Active
  Ki: Not Active
[6]
  IC50: Not Active

## O=C(c1ccccc1C(F)(F)F)N1CCC(Cc2ccccc2)CC1
[1]
  IC50: Not Active
  Ki: Not Active
[2]
  IC50: Not Active
  Ki: Not Active
[3]
  IC50: Not Active
  Ki: Not Active
[4]
  IC50: Not Active
[5]
  IC50: Not Active
  Ki: Not Active
[6]
  IC50: Not Active

## CCC1(C)CC(=O)NC1=O (configuration not stated) [ETHOSUXIMIDE]
[1]
  IC50: Not Active
  Ki: Not Active
[2]
  IC50: Not Active
  Ki: Not Active
[3]
  IC50: Not Active
  Ki: Not Active
[4]
  IC50: Not Active
[5]
  IC50: Not Active
  Ki: Not Active
[6]
  IC50: Not Active

## GRAMICIDIN
[1]
  IC50: Not Active
  Ki: Not Active
[2]
  IC50: Not Active
  Ki: Not Active
[3]
  IC50: Not Active
  Ki: Not Active
[4]
  IC50: Not Active
  Ki: Not Active
[5]
  IC50: Not Active
  Ki: Not Active
[6]
  IC50: Not Active
  Ki: Not Active

## OC(CCCN1CCCCC1)(c1ccccc1)c1ccccc1 [DIPHENIDOL]
[1]
  IC50: Not Active
  Ki: Not Active
[2]
  IC50: Not Active
  Ki: Not Active
[3]
  IC50: Not Active
  Ki: Not Active
[4]
  IC50: Not Active
[5]
  IC50: Not Active
  Ki: Not Active
[6]
  IC50: Not Active

## CCC(=O)O[C@]1(C(=O)CCl)[C@@H](C)C[C@H]2[C@@H]3CCC4=CC(=O)C=C[C@]4(C)[C@@]3(F)[C@@H](O)C[C@@]21C [CLOBETASOL PROPIONATE]
[1]
  IC50: Not Active
  Ki: Not Active
[2]
  IC50: Not Active
  Ki: Not Active
[3]
  IC50: Not Active
  Ki: Not Active
[4]
  IC50: Not Active
[5]
  IC50: Not Active
  Ki: Not Active
[6]
  IC50: Not Active

## Cc1c(OCC(F)(F)F)ccnc1C[S+]([O-])c1nc2ccccc2[nH]1 (configuration not stated) [LANSOPRAZOLE]
[1]
  IC50: Not Active
  Ki: Not Active
[2]
  IC50: Not Active
  Ki: Not Active
[3]
  IC50: Not Active
  Ki: Not Active
[4]
  IC50: Not Active
[5]
  IC50: Not Active
  Ki: Not Active
[6]
  IC50: Not Active

## CCCOc1ccc(C(=O)OCCN(CC)CC)cc1N [PROPARACAINE]
[1]
  IC50: Not Active
  Ki: Not Active
[2]
  IC50: Not Active
  Ki: Not Active
[3]
  IC50: Not Active
  Ki: Not Active
[4]
  IC50: Not Active
[5]
  IC50: Not Active
  Ki: Not Active
[6]
  IC50: Not Active

## CC(=O)[C@H]1[C@H](C#N)C[C@H]2[C@@H]3CC=C4C[C@@H](O)CC[C@]4(C)[C@H]3CC[C@@]21C [PREGNENOLONE CARBONITRILE]
[1]
  IC50: Not Active
  Ki: Not Active
[2]
  IC50: Not Active
  Ki: Not Active
[3]
  IC50: Not Active
  Ki: Not Active
[4]
  IC50: Not Active
[5]
  IC50: Not Active
  Ki: Not Active
[6]
  IC50: Not Active

## CN(C)CC[C@@H](c1ccc(Cl)cc1)c1ccccn1 [DEXCHLORPHENIRAMINE]
[1]
  IC50: Not Active
  Ki: Not Active
[2]
  IC50: Not Active
  Ki: Not Active
[3]; read-out: IC50
  IC50: 15.2 µM
[3]; read-out: Ki
  Ki: 10.1 µM
[4]
  IC50: Not Active
[5]; read-out: IC50
  IC50: 6.13 µM
[5]; read-out: Ki
  Ki: 5.45 µM
[6]
  IC50: Not Active

## CC[C@H](C)[C@H]1O[C@]2(C=C[C@@H]1C)C[C@@H]1C[C@@H](C/C=C(\C)[C@@H](O[C@H]3C[C@H](OC)[C@@H](O[C@H]4C[C@H](OC)[C@@H](O)[C@H](C)O4)[C@H](C)O3)[C@@H](C)/C=C/C=C3\CO[C@@H]4[C@H](O)C(C)=C[C@@H](C(=O)O1)[C@]34O)O2.CO[C@H]1C[C@H](O[C@H]2[C@H](C)O[C@@H](O[C@@H]3/C(C)=C/C[C@@H]4C[C@@H](C[C@]5(C=C[C@H](C)[C@@H](C(C)C)O5)O4)OC(=O)[C@@H]4C=C(C)[C@@H](O)[C@H]5OC/C(=C\C=C\[C@@H]3C)[C@]54O)C[C@@H]2OC)O[C@@H](C)[C@@H]1O [ABAMECTIN]
[1]
  IC50: Not Active
  Ki: Not Active
[2]
  IC50: Not Active
  Ki: Not Active
[3]
  IC50: Not Active
  Ki: Not Active
[4]
  IC50: Not Active
[5]
  IC50: Not Active
  Ki: Not Active
[6]
  IC50: Not Active

## C[C@@H]1O[C@@H](O[C@@H]2C=C3CC[C@@H]4[C@H](CC[C@]5(C)[C@@H](c6ccc(=O)oc6)CC[C@]45O)[C@@]3(C)CC2)[C@H](O)[C@H](O)[C@H]1O [PROSCILLARIDIN]
[1]
  IC50: Not Active
  Ki: Not Active
[2]
  IC50: Not Active
  Ki: Not Active
[3]
  IC50: Not Active
  Ki: Not Active
[4]
  IC50: Not Active
[5]
  IC50: Not Active
  Ki: Not Active
[6]
  IC50: Not Active
